One may read the Emax as the greatest response seen or fitted, relative to the assay's reference.

In one experiment the target is T1, human PPARα ligand binding domain fused to GAL4 DNA binding domain (Homo sapiens, UniProt Q07869).
T1 construct: human PPARα (including amino acid residues 167-468); expressed in transfected cells; host or cells: COS-1 cells
T1 sequence (Q07869 167-468): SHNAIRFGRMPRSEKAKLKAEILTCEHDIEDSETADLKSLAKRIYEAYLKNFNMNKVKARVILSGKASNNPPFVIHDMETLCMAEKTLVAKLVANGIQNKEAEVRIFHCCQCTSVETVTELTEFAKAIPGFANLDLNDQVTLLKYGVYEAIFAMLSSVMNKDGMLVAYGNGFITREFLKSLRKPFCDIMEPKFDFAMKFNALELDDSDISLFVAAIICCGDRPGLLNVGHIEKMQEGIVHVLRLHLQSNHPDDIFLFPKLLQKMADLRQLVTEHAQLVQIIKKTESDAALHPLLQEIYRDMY
In words: GAL4-PPARα luciferase reporter assay in COS-1 cells. The note with it: relative luciferase activity, vehicle (DMSO) control regarded as 1, 24 hours. In kind it is cell-based. The text has this:
(§1) Evaluation of PPAR α or γ Agonistic Activity
(§2) Construction of Reporter Plasmid
(§3) By inserting a gene fragment encoding the ligand binding domain of human PPARα (including amino acid residues 167-468) or a gene fragment encoding the ligand binding domain of human PPARγ (including amino acids residue 204-505) into a multicloning site of expressing vector pM containing DNA binding domain of yeast GAL4 protein (Clonetech), a vector plasmid for expressing a fused protein of GAL4 protein DNA binding domain and human PPARα or γ ligand binding domain was obtained.
(§4) As a reporter plasmid, pGL3-Basic Vector containing firefly luciferase gene (Promega Corporation) was used wherein Gal 4-responsive sequence UAS and rabbit β-globin promoter were inserted.
(§5) For the correction of transformation efficiency, a plasmid pβgal control (Clonetech) containing lacZ gene, was used.
COS-1 cells were cultured in the phenol red free Dulbecco's Modified Eagles Medium (DMEM) (Gibco) supplemented with 5% activated charcoal/dextran stripped fetal bovine serum at 37° C. with 5% carbon dioxide. […] The luciferase activity therein was measured by a luminometer using the reagent for measuring luciferase which was also accompanied to said System.
The PPARα- or γ-agonistic activity was expressed as a relative activity where the luciferase activity in the well to which the vehicle (DMSO) was added as control was regarded as 1. […]
`Cc1ccc(C(=O)c2c(C)n(-c3ccc(COC4(C(=O)O)CCC4)cc3)c3ccccc23)cc1` [Example 86, 1-({4-[2-Methyl-3-(4-methylbenzoyl)-1H-indol-1-yl]benzyl}oxy)cyclobutane carboxylic acid]: the “PPARα-agonistic activity (10 μM)” value was 1.3.

For the next experiment, the target named is T2, human PPARγ ligand binding domain fused to GAL4 DNA binding domain (Homo sapiens, UniProt P37231).
T2 construct: human PPARγ (including amino acids residue 204-505); expressed in transfected cells; host or cells: COS-1 cells
T2 sequence (P37231 204-505): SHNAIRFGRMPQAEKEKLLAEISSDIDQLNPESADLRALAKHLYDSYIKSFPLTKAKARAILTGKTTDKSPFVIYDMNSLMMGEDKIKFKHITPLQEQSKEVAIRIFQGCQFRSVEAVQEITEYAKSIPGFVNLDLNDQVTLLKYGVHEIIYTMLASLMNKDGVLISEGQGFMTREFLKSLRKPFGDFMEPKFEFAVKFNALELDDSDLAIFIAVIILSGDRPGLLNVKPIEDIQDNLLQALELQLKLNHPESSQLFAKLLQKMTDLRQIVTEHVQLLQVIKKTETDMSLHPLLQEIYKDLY
The experiment is described as follows: GAL4-PPARγ luciferase reporter assay in COS-1 cells. Type of experiment: cell-based. The following applies: 10 μM, relative luciferase activity, vehicle (DMSO) control regarded as 1, 24 hours.
Description: as §1, §2, §3, §4, §5
COS-1 cells were cultured in the phenol red free Dulbecco's Modified Eagles Medium (DMEM) (Gibco) supplemented with 5% activated charcoal/dextran stripped fetal bovine serum at 37° C. with 5% carbon dioxide. The COS-1 cells were plated at a concentration of 5×10^4 cells/well into a 24-well plate, and were incubated overnight. The medium was replaced with a fresh medium supplemented […] 5% activated charcoal/dextran treated fetal bovine serum. Further, the cells were transfected using Lipofectamine plus reagent (Gibco) with plasmids GAL4-PPARα- or γ-expressing plasmid (5 ng), the reporter plasmid (50 ng), and pβgal control (350 ng) per well. After incubation for 4 hours, the medium was changed with a fresh medium supplemented with 5% activated charcoal/dextran treated fetal bovine serum. Then, the compound of the present invention was added thereto in such an amount that the final concentration thereof is 0.1 μM, 0.3 μM, 1 μM, 3 μM or 10 μM. After the cultivation for 24 hours, the cells were lysed with a solution for cell lysis accompanied to the Luciferase Assay System (Promega Corporation). The luciferase activity therein was measured by a luminometer using the reagent for measuring luciferase which was also accompanied to said System.
The PPARα- or γ-agonistic activity was expressed as a relative activity where the luciferase activity in the well to which the vehicle (DMSO) was added as control was regarded as 1. The PPARα-agonistic activity and the PPARγ-agonistic activity at each 10 μM, and the maximum PPARγ-agonistic activity (%) of the compound of the present invention per the maximum PPARγ-agonistic activity (100%) of pioglitazone are shown in the following Table 1.
Regarding `Cc1ccc(C(=O)c2c(C)n(-c3ccc(COC4(C(=O)O)CCC4)cc3)c3ccccc23)cc1` [Example 86, 1-({4-[2-Methyl-3-(4-methylbenzoyl)-1H-indol-1-yl]benzyl}oxy)cyclobutane carboxylic acid], the “PPARγ-agonistic activity (10 μM)” value turned out to be 2.8.

Still in this experiment, the particulars now being: maximum PPARγ-agonistic activity per the maximum PPARγ-agonistic activity (100%) of pioglitazone.
In turn, `Cc1ccc(C(=O)c2c(C)c3ccc(C(F)(F)F)cc3n2Cc2ccc(/C=C/COC(C)(C)C(=O)O)cc2)cc1` [Compound 83] came in with an Emax of 13%.
As for `Cc1ccc(C(=O)c2c(C)n(Cc3ccc(/C=C/COC(C)(C)C(=O)O)cc3)c3ccccc23)cc1` [Compound 79], the Emax is 35%.
As for `COc1ccc2c(C(=O)c3ccc(C)cc3)c(C)n(Cc3ccc(CO[C@H](C)C(=O)O)cc3)c2c1` [Compound 46], the Emax is 26%.
Same read-out and setting: the same measure for `COc1ccc2c(C(=O)c3ccc(C)cc3)c(C)n(Cc3ccc(/C=C/COC(C)(C)C(=O)O)cc3)c2c1` [Compound 81]: 42%; for `Cc1ccc(C(=O)c2cccn2Cc2ccc(/C=C/CO[C@H](C)C(=O)O)cc2)cc1` [Compound 68]: 71%; for `Cc1ccc(C(=O)c2c(C)n(Cc3cccc(CO[C@H](C)C(=O)O)c3)c3ncccc23)cc1` [Compound 59]: 41%.
Take `Cc1ccc(C(=O)c2cccn2C/C=C\c2ccc(COC(C)(C)C(=O)O)cc2)cc1` [Compound 1]: the Emax turned out to be 51%.
Take `Cc1ccc(C(=O)c2nn(C/C=C/c3ccc(COC(C)(C)C(=O)O)cc3)c3ccccc23)cc1` [Compound 35]: the maximum response (Emax) was 57%.
Regarding `Cc1ccc(C(=O)c2c(C)n(-c3ccc(COC4(C(=O)O)CCC4)cc3)c3ccccc23)cc1` [Example 86, 1-({4-[2-Methyl-3-(4-methylbenzoyl)-1H-indol-1-yl]benzyl}oxy)cyclobutane carboxylic acid], the Emax amounted to 20%.
On to `Cc1ccc(C(=O)c2c(C)n(C/C=C/c3ccc(COC(C)(C)C(=O)O)cc3)c3ncccc23)cc1` [Compound 20], for which the Emax is 68%.
In the case of `Cc1ccc(C(=O)c2ccn(C/C=C/c3ccc(CO[C@H](C)C(=O)O)cc3)n2)cc1` [Compound 21], the Emax is 71%.
Compound `COc1ccc2c(C(=O)c3ccc(C)cc3)c(C)n(Cc3cccc(CO[C@H](C)C(=O)O)c3)c2c1` [Compound 54] gave an Emax of 39%.

In a further experiment the test system is male db/db mice. In words: Hypoglycemic activity in db/db mice (blood glucose level). The note with it: 30 mg/kg orally once a day for 2 weeks, blood glucose level on the last day. Type of experiment: in vivo. Here is the method:
The test compounds as disclosed in Examples were dissolved or suspended in a 0.5% carbomethyl cellulose solution, and orally administered to male db/db mice (7 to 8 weeks old) at a final dose of 30 mg/kg once a day for 2 weeks. On the last day, the blood was taken at the tail vein, and immediately thereafter, perchloric acid was added for removing proteins, and the blood glucose level was measured by Glucolse CII Test Wako (Wako Pure Industries, Ltd.).
The hypoglycemic activity was calculated by the following equation.
As to `Cc1ccc(C(=O)c2nn(/C=C/c3ccc(CO[C@H](C)C(=O)O)cc3)c3ccccc23)cc1` [Example 34, (2R)-2-[(4-{(E)-2-[3-(4-Methylbenzoyl)-1H-indazol-1-yl]vinyl}benzyl)oxy]propanoic acid], the “Hypoglycemic Activity (%)” value came to 47.4%.
Consider `COc1ccc2c(C(=O)c3ccc(C)cc3)c(C)n(Cc3cccc(CO[C@H](C)C(=O)O)c3)c2c1` [Example 54, (2R)-2-[(3-{[6-Methoxy-2-methyl-3-(4-methylbenzoyl)-1H-indol-1-yl]methyl-}benzyl)oxy]propionic acid], for which the “Hypoglycemic Activity (%)” value came to 47.7%.
Turning to `Cc1ccc(C(=O)c2c(C)n(C/C=C/c3ccc(COC(C)(C)C(=O)O)cc3)c3ncccc23)cc1` [Example 20, 2-Methyl-2-[(4-{(1E)-3-[2-Methyl-3-(4-methylbenzoyl)-1H-pyrrolo[2,3-b]pyridin-1-yl]prop-1-en-1-yl}benzyl)oxy]propionic acid], the “Hypoglycemic Activity (%)” value was found to be 50.4%.
Regarding `Cc1ccc(C(=O)c2nn(C/C=C/c3ccc(COC(C)(C)C(=O)O)cc3)c3ccccc23)cc1` [Example 35, 2-Methyl-2-[(4-{(1E)-3-[3-(4-methylbenzoyl)-1H-indazol-1-yl]prop-1-en-1-yl}benzyl)oxy]propanoic acid], the “Hypoglycemic Activity (%)” value is on record as 27.3%.

For the origin of these results see US7781479B2, “Heteroaryl derivatives” (Dainippon Sumitomo Pharma Co., Ltd., priority 2005, dated 2010).
